Data reported in US20160177395A1, “BIOMARKERS FOR THE PREDICTION OF RENAL INJURY” (priority 2007, published 2016).

Tested on: kidney tissues
Assay: Random-Forest classifier for renal toxicity, discovery stage (Day-5 and Day-1 signatures)
Design: species or system rat
Settings: Day-5 animals, qRT-PCR data, signature of Table 13
Text: Finding signatures using machine learning algorithms requires two steps—selecting a limited set of features to be used for the signature, and building a classifier using these features. The feature selection stage is especially significant here for several reasons. Large number of features means a low signal to noise ratio, tampering the classifier performance, large number of features, compared to the relatively small number of samples, means that spurious features might exists. These are features that give good classification on the experiment data by chance, causing the classifier to be over-fitted to the learning set and have low prediction ability, and finally—a small number of features is important for practical application of the signature.
The initial features selection process is done by performing Mann-Whitney (Wilcoxon) rank-sum test on the data, considering only probesets whose overall normalized expression mean is over 25, to avoid working at noise-level. […]
The qRT-PCR data was used to construct the optimal Random-Forest classifier for Day-5 (Table 13) and Day-1 (Table 16). The optimal performance of the Day-5 signatures, as measured by cross validation is—Accuracy of 94% and LOR of 5.6. […]

Structure (SMILES): [Cl][Cd][Cl] [Cadmium chloride]
- Samples classified correctly as toxic by the optimal Day-5 classifier: 5 out of 6
